Measurements as given in patent US20240199598A1 (MITOIMMUNE THERAPEUTICS INC., priority 2021, published 2024).

Legend:
[1] = Physicochemical stability test of free form and 5 salts (60° C., 40° C./75% humidity, light); conditions: for Final purity: HPLC; for Chemical stability (purity change %/1 w), 40° C./75% RH / Chemical stability (purity change %/1 w), 60° C. / Chemical stability (purity change %/1 w), Light stability: summary Table 9; for Sensitivity to heat, humidity and light conditions (in words): 40° C./75% humidity
Procedure: In the case of a light stability test, the vial was stored in a light stability test chamber while being not closed with a lid, and exposed to a total illuminance of 1.2 million lux-hr. A vial light-shielded with aluminum foil was used as an experimental control (Dark control). For stability assessment, state assessment by visual observation, purity assessment using HPLC, and crystalline form assessment using XRPD were conducted, and results thereof are shown in Table 7. […] In FIGS. 19 to 30, “Light” represents light irradiation condition results.

[2] = Oral administration pharmacokinetic test using mice; conditions: mice, oral; for AUClast / Cmax / Tmax / t½: 10 mg/kg; for Pharmacokinetic test, t½: summary Table 9
[3] = Stability test of Crystalline form III of sulfate (light, dark, 60° C., 40° C./75% RH); format: physicochemical
Procedure: The chemical and physical stability of Crystalline form III were studied under conditions of light, light-shielding, 60° C. and 40° C./75% RH for 1 month. […] In the light stability test, the crystalline form was stored in a light stability test chamber without a lid and thus exposed to a total illuminance of 1.2 million lux-hr, and a sample vial completely covered with an aluminum foil was regarded as a light-shielded control (Dark control). Appearance by visual observation for 2 weeks, 1 month, 2 months and 3 months was recorded, and purity assessment and XPRD data collection for residual solid contents were performed.

[4] = Dark control (light-shielded vial)

CS(=O)(=O)O.O=S1(=O)CCN(Cc2cc(NC3CCOCC3)c3[nH]c(-c4ccccc4)cc3c2)CC1 [Mesylate]
Assay ([1]; 1.2 million lux-hr): 102.69% | Purity change ([1]; 1.2 million lux-hr): −0.82% | XRPD patterns ([1]; 1.2 million lux-hr): Pattern 4-I | Final purity ([1]; 1.2 million lux-hr): 99.18% | Purity decrease ([1]; 40° C. RH for 1 week): ≥ 3% | Appearance ([1]; 40° C./75% RH, 1 w): White powder | Assay ([1]; 40° C./75% RH, 1 w): 101.35% | Purity change ([1]; 40° C./75% RH, 1 w): −3.29% | XRPD patterns ([1]; 40° C./75% RH, 1 w): Pattern 4-I | Final purity ([1]; 40° C./75% RH, 1 w): 96.71% | Chemical stability (purity change %/1 w), 40° C./75% RH ([1]; 40° C./75% RH, 1 w): −3.29% | Appearance ([1]; 60° C., 1 w): White powder | Assay ([1]; 60° C., 1 w): 107.36% | Purity change ([1]; 60° C., 1 w): 0% | XRPD patterns ([1]; 60° C., 1 w): Pattern 4-I | Final purity ([1]; 60° C., 1 w): 100.0% | Chemical stability (purity change %/1 w), 60° C. ([1]; 60° C., 1 w): 0% | Sensitivity to heat, humidity and light conditions (in words) ([1]; 60° C., 1.2 million lux-hr): sensitive under humidity and light conditions | Assay ([1]; Dark control): 103.03% | Purity change ([1]; Dark control): 0% | XRPD patterns ([1]; Dark control): Pattern 4-I | Appearance [1, 4]: White powder | Final purity ([1]; Dark control): 100.0% | Chemical stability (purity change %/1 w), Light stability [1]: −0.82% | AUClast [2]: 10119.7 ng·h/mL | Cmax [2]: 2595.2 ng/mL | Tmax [2]: 0.5 h | t½ [2]: 2.3 h | Pharmacokinetic test, t½ [2]: 2 h

O=C(O)/C=C\C(=O)O.O=S1(=O)CCN(Cc2cc(NC3CCOCC3)c3[nH]c(-c4ccccc4)cc3c2)CC1 [Maleate]
Assay ([1]; 1.2 million lux-hr): 109.56% | Purity change ([1]; 1.2 million lux-hr): −0.17% | XRPD patterns ([1]; 1.2 million lux-hr): Pattern 7-I | Final purity ([1]; 1.2 million lux-hr): 96.86% | Appearance ([1]; 40° C./75% RH, 1 w): Yellow powder | Assay ([1]; 40° C./75% RH, 1 w): 108.85% | Purity change ([1]; 40° C./75% RH, 1 w): −0.77% | XRPD patterns ([1]; 40° C./75% RH, 1 w): Pattern 7-I | Final purity ([1]; 40° C./75% RH, 1 w): 96.26% | Chemical stability (purity change %/1 w), 40° C./75% RH ([1]; 40° C./75% RH, 1 w): −0.77% | Appearance ([1]; 60° C., 1 w): Yellow powder | Assay ([1]; 60° C., 1 w): 110.00% | Purity change ([1]; 60° C., 1 w): −0.44% | XRPD patterns ([1]; 60° C., 1 w): Pattern 7-I | Final purity ([1]; 60° C., 1 w): 96.59% | Chemical stability (purity change %/1 w), 60° C. ([1]; 60° C., 1 w): −0.44% | Sensitivity to heat, humidity and light conditions (in words) ([1]; 60° C., 1.2 million lux-hr): sensitive under all conditions including heat, humidity and light irradiation conditions | Assay ([1]; Dark control): 109.66% | Purity change ([1]; Dark control): +0.01% | XRPD patterns ([1]; Dark control): Pattern 7-I | Appearance [1, 4]: Yellow powder | Final purity ([1]; Dark control): 97.04% | Chemical stability (purity change %/1 w), Light stability [1]: −0.17% | AUClast [2]: 15780.45 ng·h/mL | Cmax [2]: 3115.9 ng/mL | Tmax [2]: 0.5 h | t½ [2]: 2.8 h | Pharmacokinetic test, t½ [2]: 3 h

O=S(=O)(O)O.O=S1(=O)CCN(Cc2cc(NC3CCOCC3)c3[nH]c(-c4ccccc4)cc3c2)CC1
Area (%), impurity peak 3 (RRT 0.67) ([3]; 1.2 million lux-hr): 0.226% | Area (%), impurity peak 10 (RRT 1.24) ([3]; 1.2 million lux-hr): 0.221% | Area (%), impurity peak 12 (RRT 1.42) ([3]; 1.2 million lux-hr): 0.073% | Area of Sulfate (%), peak 7 (RRT 1.00, main peak) ([3]; 1.2 million lux-hr): 99.382% | Area (%), impurity peak 2 (RRT 0.63) ([3]; 40° C./75% RH, 1 M): 0.183% | Area (%), impurity peak 4 (RRT 0.68) ([3]; 40° C./75% RH, 1 M): 0.061% | Area (%), impurity peak 6 (RRT 0.91) ([3]; 40° C./75% RH, 1 M): 0.102% | Area (%), impurity peak 9 (RRT 1.12) ([3]; 40° C./75% RH, 1 M): 0.518% | Area (%), impurity peak 11 (RRT 1.32) ([3]; 40° C./75% RH, 1 M): 0.149% | Area of Sulfate (%), peak 7 (RRT 1.00, main peak) ([3]; 40° C./75% RH, 1 M): 98.711% | Area (%), impurity peak 1 (RRT 0.50) ([3]; 40° C./75% RH, 2 W): 0.069% | Area (%), impurity peak 3 (RRT 0.67) ([3]; 40° C./75% RH, 2 W): 0.226% | Area (%), impurity peak 10 (RRT 1.24) ([3]; 40° C./75% RH, 2 W): 0.321% | Area (%), impurity peak 12 (RRT 1.42) ([3]; 40° C./75% RH, 2 W): 0.084% | Area of Sulfate (%), peak 7 (RRT 1.00, main peak) ([3]; 40° C./75% RH, 2 W): 98.769% | Area (%), impurity peak 2 (RRT 0.63) ([3]; 60° C., 1 M): 0.168% | Area (%), impurity peak 4 (RRT 0.68) ([3]; 60° C., 1 M): 0.056% | Area (%), impurity peak 9 (RRT 1.12) ([3]; 60° C., 1 M): 0.325% | Area (%), impurity peak 11 (RRT 1.32) ([3]; 60° C., 1 M): 0.088% | Area of Sulfate (%), peak 7 (RRT 1.00, main peak) ([3]; 60° C., 1 M): 99.247% | Area (%), impurity peak 3 (RRT 0.67) ([3]; 60° C., 2 W): 0.231% | Area (%), impurity peak 5 (RRT 0.82) ([3]; 60° C., 2 W): 0.052% | Area (%), impurity peak 8 (RRT 1.11) ([3]; 60° C., 2 W): 0.114% | Area (%), impurity peak 10 (RRT 1.24) ([3]; 60° C., 2 W): 0.211% | Area (%), impurity peak 12 (RRT 1.42) ([3]; 60° C., 2 W): 0.054% | Area of Sulfate (%), peak 7 (RRT 1.00, main peak) ([3]; 60° C., 2 W): 99.237% | Area (%), impurity peak 3 (RRT 0.67) ([3]; Dark control): 0.209% | Area (%), impurity peak 8 (RRT 1.11) ([3]; Dark control): 0.069% | Area (%), impurity peak 12 (RRT 1.42) ([3]; Dark control): 0.078% | Area of Sulfate (%), peak 7 (RRT 1.00, main peak) ([3]; Dark control): 99.326% | Area (%), impurity peak 3 (RRT 0.67) ([3]; Initial): 0.204% | Area (%), impurity peak 8 (RRT 1.11) ([3]; Initial): 0.069% | Area (%), impurity peak 10 (RRT 1.24) ([3]; Initial): 0.215% | Area (%), impurity peak 12 (RRT 1.42) ([3]; Initial): 0.08% | Area of Sulfate (%), peak 7 (RRT 1.00, main peak) ([3]; Initial): 99.319%

Cc1ccc(S(=O)(=O)O)cc1.O=S1(=O)CCN(Cc2cc(NC3CCOCC3)c3[nH]c(-c4ccccc4)cc3c2)CC1 [Tosylate]
Assay ([1]; 1.2 million lux-hr): 105.78% | Purity change ([1]; 1.2 million lux-hr): −0.24% | XRPD patterns ([1]; 1.2 million lux-hr): Pattern 6-I | Final purity ([1]; 1.2 million lux-hr): 98.77% | Appearance ([1]; 40° C./75% RH, 1 w): White powder | Assay ([1]; 40° C./75% RH, 1 w): 107.73% | Purity change ([1]; 40° C./75% RH, 1 w): −0.01% | XRPD patterns ([1]; 40° C./75% RH, 1 w): Pattern 6-I | Final purity ([1]; 40° C./75% RH, 1 w): 99.00% | Chemical stability (purity change %/1 w), 40° C./75% RH ([1]; 40° C./75% RH, 1 w): −0.01% | Appearance ([1]; 60° C., 1 w): White powder | Assay ([1]; 60° C., 1 w): 108.33% | Purity change ([1]; 60° C., 1 w): −0.05% | XRPD patterns ([1]; 60° C., 1 w): Pattern 6-I | Final purity ([1]; 60° C., 1 w): 98.96% | Chemical stability (purity change %/1 w), 60° C. ([1]; 60° C., 1 w): −0.05% | Sensitivity to heat, humidity and light conditions (in words) ([1]; 60° C., 1.2 million lux-hr): sensitive to light | Assay ([1]; Dark control): 108.98% | Purity change ([1]; Dark control): −0.03% | XRPD patterns ([1]; Dark control): Pattern 6-I | Appearance [1, 4]: White powder | Final purity ([1]; Dark control): 98.98% | Chemical stability (purity change %/1 w), Light stability [1]: −0.24% | AUClast [2]: 18850.98 ng·h/mL | Cmax [2]: 3151.3 ng/mL | Tmax [2]: 0.5 h | t½ [2]: 2.8 h | Pharmacokinetic test, t½ [2]: 3 h
